Test results as given in patent US5942502A, “Method of treating diseases resulting from calcium metabolism disorders” (priority 1998, dated 1999).
“Also recorded” adds a separate entry of the source. Where two headings read alike, the source gives them in different places.

What was measured:
[1] = Single-dose clinical study of ST-630: blood biochemistry / serum electrolytes; type: in vivo, human
Source text: (2) Blood biochemistry: Total protein fraction, BUN, creatinine, total cholesterol, neutral fat, phospholipid, serum electrolytes (Na, K, Cl, Ca, P, Mg), Al-P, GOT, GPI, LDH, γ-GTP, CPK, blood glucose, HBs antigen/antibody*^1, serologic test for syphilis, activated partial thrombo-plastin time *^2 and prothrombin time *^2
(§1) (1) Serum concentrations: ST-630, Ca, P, Mg and Al-P

[2] = Single-dose clinical study of ST-630: urinary excretions of electrolytes; type: in vivo, human
Source text: (3) Urinalysis: pH, occult blood, protein, glucose, bilirubin, urobilinogen, sediment and creatinine clearance (24-hour method)
(2) Urinary excretion ST-630, Ca, P, Mg, Na, K, creatinine, c-AMP*^3 and hydroxyproline*^3

[3] = Study of dietary effect on the absorption of ST-630 (crossover); type: in vivo, human; conditions: 2.0 μg, postprandial (30 min after meal) compared with fasting (FIG. 13)
Protocol: as §1
*: Administration at 30 min after meal.
The dietary effect on the absorption of ST-630 was studied by the crossover method at the dose of 2.0 μg.

[4] = Repeated-dose clinical study of ST-630 (7 days, postprandial); type: in vivo, human; conditions: 1.0 μg/day for 7 days
Protocol: 4.1. Dosing schedule (postprandial administration)
*^1 : Blood samples are collected only immediately before
*^2 : Blood samples are collected only immediately before
*^3 : Only cereatinie are determined immediately before and 12 hr
after administration on day 1, immediately before and 12, 24, 48, 72, 96
and 120 hr after the last administration, and at followup examination. On
days 2-6, blood samples are collected only immediately before
ST-630 was administered postprandially at a daily dose of 1.0 μg for 7 days.

[5] = Subjective and objective symptoms (incl. ESR) in the clinical studies of ST-630; type: in vivo, human
Source text: 2) Questioning, auscultation, percussion
5. Subjective and objective symptoms

Ovariectomized rats = experiment: Ovariectomized rat model: serum Ca and P, femur dry weight, ash weight and breaking load; type: in vivo, Female Fisher rats; conditions: for Serum Pi / Breaking load (femur) / Serum Ca / Ash weight (femur) / Dry weight (femur): three times a week for 23 weeks, Mean ± SD; for Serum Pi: OVX 2.6 ± 0.4; for Breaking load (femur): OVX 9.0 ± 0.9; for Serum Ca: OVX 9.7 ± 0.2; for Ash weight (femur): OVX 285 ± 19; for Dry weight (femur): OVX 431 ± 26
Source text: Female Fisher rats, 9-10 months old, were ovariectomized and were fed a vitamin D-deficient diet containing 0.45% calcium and 0.3% phosphorus. The rats were given 15IU of vitamin D3 orally once a week throughout this experiment. Four weeks after the surgery, the rats were orally adminstered three times a week for 23 weeks with ST-630 (30, 100 or 300 pmole/kg) or 1α-hydroxyvitamin D3 (100 or 300 pmole/kg).

[6] = Acute toxicity (LD50), single dose; type: in vivo, rat; conditions: rat, in vivo; single (acute) dose, male rats, at 14 days
Source text: (§2) LD50 data represent the dose administered resulting in the death of 50% of the test group.

male rats = experiment: Acute toxicity (LD50), single dose; type: in vivo, rat; conditions: rats, from LD50
Source text: as §2

female beagle dogs = experiment: Chronic dosing toxicity, three months oral; type: in vivo, dog (beagle)
Protocol: With respect to chronic dosing, a group of six female beagle dogs were given 0.3 mg/kg of either ST-630 or 1α-hydroxyvitamin D3 orally each day for three months.

[7] = Overall safety / tolerance between effectiveness and toxicity in humans; type: in vivo, human
[8] = test system: vitamin D responsive systems of vitamin D-deficient animals; conditions: cited from earlier work; for activity relative to 1,25-(OH)2 D3: vitamin D responsive systems, vitamin D-deficient animals, times that of 1,25-(OH)2 D3
[9] = single dose 0.25, 0.5, 1 and 2 μg/man (FIGS. 1-4)
[10] = single doses 0.0125 μg to 2.0 μg
[11] = 0.0125 μg single dose, subject 1, last value, no date
[12] = 2.0 μg single dose, subject 8, last value, no date
[13] = compared with 1α-hydroxyvitamin D3
[14] = dose response over the doses tested
[15] = vitamin D-like activity compared with 1,25-dihydroxycholecalciferol

Q: Which results are given for `C=C1/C(=C\C=C2/CCC[C@]3(C)[C@@H]([C@H](C)CCCC(O)(C(F)(F)F)C(F)(F)F)CC[C@@H]23)C[C@@H](O)C[C@@H]1O` [ST-630, 26,26,26,27,27,27-hexafluoro-1α,25-dihydroxycholecalciferol]?
A: toxicity at higher doses in humans ([1]; 0.5 μg, 1 μg and 2 μg (FIGS. 2-4)): without toxicity problems; serum Ca change [1, 9]: No major change; serum Mg change [1, 9]: No major change; serum P change [1, 9]: No major change; blood biochemistry change [1, 10]: No change; serum electrolytes change [1, 10]: No change; total urinary Ca excretion ([2]; single dose 2.0 μg): increases; urinary Ca/Cr ratio ([2]; single dose 2.0 μg): increases; urinary electrolytes ([2]; single doses below 2.0 μg (FIGS. 5-12)): no significant increases; AUC (area under the serum concentration curve), postprandial versus fasting [3]: slightly higher; serum Ca concentration change ([4]; postprandial): tended to be elevated slightly but the change was within the normal range; urinary Ca/Cr ratio ([4]; postprandial): increased with the number of dosings; recovery of urinary Ca/Cr ratio ([4]; after completion of administration): recovered to the control value immediately after completion of administration; ESR 1 h ([5]; 0.0125 μg single dose, subject 1, date 2/4 (before: 3)): 3; ESR 2 h ([5]; 0.0125 μg single dose, subject 1, date 2/4 (before: 7)): 8; ESR 1 h ([5]; 0.0125 μg single dose, subject 1, date 2/8 (before: 3)): 3; ESR 2 h ([5]; 0.0125 μg single dose, subject 1, date 2/8 (before: 7)): 8; ESR 1 h ([5]; 0.0125 μg single dose, subject 1, follow-up examination 2/15 (before: 3)): 13; ESR 2 h ([5]; 0.0125 μg single dose, subject 1, follow-up examination 2/15 (before: 7)): 34; ESR 1 h [5, 11]: 1; ESR 2 h [5, 11]: 8; ESR 1 h ([5]; 2.0 μg single dose, subject 8, date 8/15 (before: 5)): 4; ESR 2 h ([5]; 2.0 μg single dose, subject 8, date 8/15 (before: 8)): 8; ESR 1 h ([5]; 2.0 μg single dose, subject 8, date 8/19 (before: 5)): 4; ESR 2 h ([5]; 2.0 μg single dose, subject 8, date 8/19 (before: 8)): 11; ESR 1 h ([5]; 2.0 μg single dose, subject 8, follow-up examination 8/27 (before: 5)): 11; ESR 2 h ([5]; 2.0 μg single dose, subject 8, follow-up examination 8/27 (before: 8)): 27; ESR 1 h [5, 12]: 3; ESR 2 h [5, 12]: 8; Symptom ([5]; repeated-dose study, 1.0 μg/day, 7 days, subjects 1-8): None and No symptom; increase in erythrocyte sedimentation rate, number of cases ([5]; single dose 0.0125 μg (Step 1)): one case; headache (symptom) ([5]; single dose 0.25 μg (Step 5)): Headache; also recorded: one case; increase in erythrocyte sedimentation rate, number of cases ([5]; single dose 2.0 μg (Step 8)): one case; Symptom ([5]; study of dietary effect, 2.0 μg, subjects 1-10): None and No symptom; Serum Pi (Ovariectomized rats; 30 pmole/kg p.o.): 3.6 ± 0.3 mg/100 ml; Breaking load (femur) (Ovariectomized rats; 30 pmole/kg p.o.): 9.7 ± 0.8 kg; Serum Ca (Ovariectomized rats; 30 pmole/kg p.o.): 9.9 ± 0.4 mg/100 ml; Ash weight (femur) (Ovariectomized rats; 30 pmole/kg p.o.): 298 ± 22 mg; Dry weight (femur) (Ovariectomized rats; 30 pmole/kg p.o.): 449 ± 29 mg; Serum Pi (Ovariectomized rats; 100 pmole/kg p.o.): 4.8 ± 0.2 mg/100 ml; Breaking load (femur) (Ovariectomized rats; 100 pmole/kg p.o.): 10.6 ± 0.5 kg; Serum Ca (Ovariectomized rats; 100 pmole/kg p.o.): 10.6 ± 04 mg/100 ml; Ash weight (femur) (Ovariectomized rats; 100 pmole/kg p.o.): 319 ± 12 mg; Dry weight (femur) (Ovariectomized rats; 100 pmole/kg p.o.): 472 ± 21 mg; Serum Pi (Ovariectomized rats; 300 pmole/kg p.o.): 5.3 ± 0.3 mg/100 ml; Breaking load (femur) (Ovariectomized rats; 300 pmole/kg p.o.): 12.4 ± 1.3 kg; Serum Ca (Ovariectomized rats; 300 pmole/kg p.o.): 11.7 ± 0.7 mg/100 ml; Ash weight (femur) (Ovariectomized rats; 300 pmole/kg p.o.): 362 ± 32 mg; Dry weight (femur) (Ovariectomized rats; 300 pmole/kg p.o.): 538 ± 47 mg; prevention of the decrease of ash weight of the femur (Ovariectomized rats; [13]): more potently; prevention of the decrease of breaking load of the femur (Ovariectomized rats; [13]): more potently; prevention of the decrease of dry weight of the femur (Ovariectomized rats; [13]): more potently; increase of mechanical strength of the bone (Ovariectomized rats; compared with 1α-hydroxyvitamin D3 at doses causing the same increase of serum calcium (FIG. 24)): more potently; serum calcium level (Ovariectomized rats; [14]): increased dose-dependently; serum phosphorus level (Ovariectomized rats; [14]): increased dose-dependently; LD50 at 336 h [6]: 0.043 mg/kg; toxicity relative to 1α-hydroxyvitamin D3 (male rats): about five times more toxic; deaths (female beagle dogs; 0.3 mg/kg orally each day for three months): all six dogs; toxicity relative to 1α-hydroxyvitamin D3 (female beagle dogs; conclusion for rats and dogs): much more toxic; calcium absorption [7]: promoted calcium absorption; hypercalcemia [7]: no hypercalcemia; safety [7]: no remarkable problem on safety; "window" or tolerance between effectiveness and toxicity in humans ([7]; up to 2.0 μg): relatively large; activity relative to 1,25-(OH)2 D3 ([8]; listed as 26,26,26,27,27,27-F6 -1,25-(OH)2 D3): at least ten times greater; activity relative to 1,25-(OH)2 D3 ([8]; listed as 26,26,26,27,27,27-hexafluoro derivative of 1α,25-dihydroxycholecalciferol): at least ten times greater; activity relative to 1,25-(OH)2 D3 ([8]; listed as 26,26,26,27,27,27-hexafluoro-1α,25-dihydroxyvitamin D3): about ten times more active; ability to mobilize calcium from bone [8, 15]: substantially greater; ability to stimulate calcium transport in the intestine [8, 15]: substantially greater; anti-rachitic activity according to the rat line test [8, 15]: substantially greater
